{
  "source": "patent US8506930B2",
  "about": "“Compounds having affinity for amyloid” (Nihon Medi-Physics Co., Ltd., priority 2006, dated 2013)",
  "key": {"[1]": {"experiment": "Partition coefficient based on HPLC", "format": "physicochemical", "conditions": "50 mM triethylamine phosphate (pH 7.2)/acetonitrile=40/60; log PHPLC=0.96(log10K′HPLC)+1.59", "experimental": "The partition coefficient by HPLC (hereinafter referred to as log PHPLC) was measured by the following method.\nFirst, compounds for evaluation shown in Table 1-5 were dissolved at a concentration of 1 mg/mL in methanol containing 10% dimethylsulfoxide to prepare sample solutions. One μL of the sample solution was subjected to HPLC analysis under the following conditions to determine the elution time (t0) of the solvent and the elution time (tR) of each compound. […]\nUsing the obtained t0 and tR, the retention factor (hereinafter referred to as K′HPLC value) of each compound for evaluation was determined according to the following calculation formula (1-3). […]\nAfter the individual solutions were stirred for 30 seconds, the solutions were centrifuged at 2,000 rpm for 60 minutes. 1 mL each of the octanol phase and the water phase was fractionated, and the radioactivity was measured by an autowell gamma system (manufactured by Aloka Co., Ltd.: Type ARC-301B). Based on the obtained radioactivity, log Poctanol values were calculated according to the above equation (1-2). […]\nUsing K′HPLC obtained for each compound for evaluation, the log PHPLC value of each compound for evaluation was determined according to the above calculation formula (1-4)."}, "[2]": {"conditions": "International Publication WO03/106439 pamphlet; cited from earlier work"}, "[3]": {"experiment": "Transferability into brain and clearance, Examples II-22 to II-23", "format": "in vivo, male Wistar rats", "conditions": "rats, intravenous injection, Table 2-7", "procedure": "0.05 mL each of the prepared sample solutions was injected under thiopental anesthesia into the tail vein of the respective Wistar rat (7-week old). The rats were sacrificed by bleeding from abdominal artery, and brains were removed and subjected to measurement of mass of brains and further subjected to measurement of radioactivity (hereinafter referred to as A in this Example) with a single channel analyzer (detector type SP-20 manufactured by OHYO KOKEN KOGYO Co., Ltd.) 2, 5, 30, and 60 minutes after the injection. Further, the radioactivity level of the rest of the whole body was measured in the same manner as above (hereinafter referred to as B in this Example). Using these measurement results, radioactive distribution per unit weight of brain (% ID/g) at the respective time points were calculated in accordance with the following formula (2-5).\n(§1) Three animals were used for the experiment at the respective time points."}, "[4]": {"experiment": "Transferability into brain and clearance (2), Example I-30", "format": "in vivo, male Wistar rats", "conditions": "rats, intravenous injection, Table 1-10", "procedure": "0.05 mL each of these solutions was injected under thiopental anesthesia into the tail vein of respective Wistar rats (7-week old). The rats were sacrificed by bleeding from abdominal artery, and brains were removed and subjected to measurement of mass of brains and further subjected to measurement of radioactivity (hereinafter referred to as A in this Example) with a single channel analyzer (detector type: SP-20 manufactured by OHYO KOKEN KOGYO Co., Ltd.) 2, 5, 30 and 60 minutes after the injection. Also, radioactivity (hereinafter referred to as B in this Example) of the rest of the whole body was measured in the same manner as above. Using these measurement results, radioactive distribution per unit weight of brain (% ID/g) at the respective time points were calculated in accordance with the following formula (1-7).\nThree animals were used for experiment at the respective time points."}, "[5]": {"biological_target": "T1, intracerebral amyloid (aggregated Aβ1-40 injected into amygdaloid nucleus) (Homo sapiens, UniProt P05067)", "T1 construct": "Aβ1-40 (Peptide Institute, INC.) was dissolved in phosphate buffer (pH 7.4); purchased Peptide Institute, INC", "T1 sequence (P05067 672-711)": "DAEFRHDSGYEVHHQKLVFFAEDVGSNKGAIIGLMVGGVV", "experiment": "Ex vivo autoradiogram of 123I-IMPY using rats of amyloid injected model, Comparative Example II-6", "format": "in vivo, male Wistar rat", "conditions": "brain slice 60 minutes after tail vein injection", "procedure": "(§2) (1) Aβ1-40 (manufactured by Peptide Institute, INC.) was dissolved in phosphate buffer (pH 7.4) and shaken at 37° C. for 72 hours, to obtain 1 mg/mL of a suspension of aggregated Aβ (hereinafter referred to as amyloid suspension in this Example).\n(§3) (2) 2.5 μL (corresponding to 25 μg) of the amyloid suspension was injected into an amygdaloid nucleus on one side of a male Wistar rat (7-week old). As a control, 2.5 μL of a phosphate buffered physiological saline solution (pH 7.4) was injected into an amygdaloid nucleus on the other side of the rat. The rats were examined 1 day after the injection of the amyloid suspension and the phosphate buffered physiological saline solution (pH 7.4).\n(§4) This solution was injected under thiopental anesthesia into the rat through the tail vein (dosage: 0.5 mL, dosed radioactivity: 14.5 MBq equivalent).\n(§5) (4) Brain was removed 60 minutes after the injection to prepare a brain slice of 10 μm in thickness with a microtome (type: CM3050S, manufactured by LEICA). The brain slice was exposed to an imaging plate for 20 hours, and then image analysis was carried out by use of a Bio-imaging Analyzer (type: BAS-2500; manufactured by FUJIFILM Corporation)."}, "[6]": {"test_system": "intracerebral amyloid (aggregated Aβ1-40 injected into amygdaloid nucleus)", "experiment": "Ex vivo autoradiogram of 123I-IMPY using rats of amyloid injected model, Comparative Example II-6", "format": "in vivo, male Wistar rat", "conditions": "autoradiogram, 60 minutes after tail vein injection", "procedure": "as §2, §3, §4, §5"}, "[7]": {"experiment": "Partition coefficient based on the octanol extraction method, Examples II-20 to II-21", "format": "physicochemical", "conditions": "octanol / 10 mmol/L phosphate buffer (pH 7.4); Table 2-6", "procedure": "To 2 mL of octanol, 10 μL each of the prepared sample solution was added, and 2 mL of 10 mmol/L phosphate buffer (pH 7.4) was further added, followed by stirring for 30 seconds. After the mixture was centrifuged with a low-speed centrifuge (2000 rpm×60 min.), the octanol layer and the water layer were sampled each in an amount of 1 mL, and subjected to measurement of radioactivity count with an autowell gamma system (Type: ARC-301B, manufactured by Aloka). Using the obtained radioactivity count, log Poctanol was calculated in accordance with the equation (2-4)."}, "[8]": {"experiment": "Partition coefficient based on the octanol extraction method, Examples II-8 to II-9", "format": "physicochemical", "conditions": "octanol / 10 mmol/L phosphate buffer (pH 7.4); Table 2-4", "procedure": "To 2 mL of octanol, 10 μL each of the prepared sample solutions was added, 2 mL of 10 mmol/L phosphate buffer (pH 7.4) was added, followed by stirring for 30 seconds. After the mixture was centrifuged with a low-speed centrifuge (2000 rpm×60 min.), the octanol layer and the water layer were sampled each in an amount of 1 mL, and subjected to measurement of radioactivity count with an autowell gamma system (Type: ARC-301B, manufactured by Aloka). Using the obtained radioactivity count, log Poctanol was calculated in accordance with the equation (2-2)."}, "[9]": {"experiment": "Transferability into brain and clearance, Examples II-10 to II-11", "format": "in vivo, male Wistar rats", "conditions": "rats, intravenous injection, Table 2-5", "procedure": "0.05 mL each of the prepared sample solutions was injected under thiopental anesthesia into the tail vein of the rats. The rats were sacrificed by bleeding from abdominal artery, and brains were removed and subjected to measurement of mass of brains and further subjected to measurement of radioactivity (hereinafter referred to as A in this Example) with a single channel analyzer (detector type SP-20 manufactured by OHYO KOKEN KOGYO Co., Ltd.) 2, 5, 30, and 60 minutes after the injection. Further, the radioactivity level of the rest of the whole body was measured in the same manner as above (hereinafter referred to as B in this Example). Using these measurement results, radioactive distribution per unit weight of brain (% ID/g) at the respective time points were calculated in accordance with the following formula (2-3).\nas §1"}, "[10]": {"experiment": "Partition coefficient based on the octanol extraction method, Examples I-13 to I-14", "format": "physicochemical", "conditions": "octanol / 10 mmol/L phosphate buffer (pH 7.4); Table 1-4", "procedure": "After the mixture was centrifuged with a low-speed centrifuge (2000 rpm×60 min.), the octanol layer and the water layer were sampled each in an amount of 1 mL, and subjected to measurement of radioactivity count with an autowell gamma system (manufactured by Aloka, Type: ARC-301B). Using the obtained radioactivity count, log Poctanol was calculated in accordance with the equation (1-2)."}, "[11]": {"experiment": "Partition coefficient based on the octanol extraction method, Example I-29", "format": "physicochemical", "conditions": "octanol / 10 mmol/L phosphate buffer (pH 7.4); Table I-9", "experimental": "To 2 mL of octanol, 10 μL each of the prepared sample solutions was added, and 2 mL of a 10 mmol/L phosphate buffer (pH 7.4) was further added, followed by stirring for 30 seconds."}, "[12]": {"experiment": "Transferability into brain and clearance, Examples I-20 to I-21", "format": "in vivo, male Wistar rats", "conditions": "rats, intravenous injection, Table 1-7", "description": "Three animals were used for Experiment I-20 and Comparative Experiment I-9, and two animals were used for Experiment I-21 at the respective time points."}},
  "data": [
    {"compound": "CN(C)c1ccc(-c2cn3cc(I)ccc3n2)cc1", "note": "[IMPY, 6-iodo-2-[4′-(N,N-dimethylamino)phenyl]imidazo[1,2-a]pyridine]", "values": [
      {"measurement": "logPHPLC value", "setting": "[1]", "value": 2.1},
      {"measurement": "reverse mutation test result", "setting": "[2]", "value": "positive"}
    ]},
    {"compound": "CN(C)c1ccc(-c2cn3cc([123I])ccc3n2)cc1", "note": "[[^123I]-IMPY, reference compound]", "values": [
      {"measurement": "Radioactive distribution in brain per unit weight, After 2 min.", "setting": "[3]; 2 min.", "value": 1.19, "unit": "% ID/g"},
      {"measurement": "Radioactive distribution in brain per unit weight, After 5 min.", "setting": "[3]; 5 min.", "value": 0.97, "unit": "% ID/g"},
      {"measurement": "Radioactive distribution in brain per unit weight, After 30 min.", "setting": "[3]; 30 min.", "value": 0.23, "unit": "% ID/g"},
      {"measurement": "Radioactive distribution in brain per unit weight, After 60 min.", "setting": "[3]; 60 min.", "value": 0.09, "unit": "% ID/g"},
      {"measurement": "Radioactive distribution in brain per unit weight, After 2 min.", "setting": "[4]; 2 min.", "value": 1.19, "unit": "% ID/g"},
      {"measurement": "Radioactive distribution in brain per unit weight, After 5 min.", "setting": "[4]; 5 min.", "value": 0.97, "unit": "% ID/g"},
      {"measurement": "Radioactive distribution in brain per unit weight, After 30 min.", "setting": "[4]; 30 min.", "value": 0.23, "unit": "% ID/g"},
      {"measurement": "Radioactive distribution in brain per unit weight, After 60 min.", "setting": "[4]; 60 min.", "value": 0.09, "unit": "% ID/g"},
      {"measurement": "accumulation of radioactivity in amygdaloid nucleus on the side to which the amyloid suspension was injected", "setting": "[5]", "value": "marked accumulation of radioactivity"},
      {"measurement": "accumulation of radioactivity where amyloid was not injected (white matter)", "setting": "[6]", "value": "non-specific accumulation was observed in white matter"},
      {"measurement": "logPoctanol value", "setting": "[7]", "value": 2.1},
      {"measurement": "logPoctanol value", "setting": "[8]", "value": 1.9},
      {"measurement": "Radioactive distribution in brain per unit weight, After 2 min.", "setting": "[9]; 2 min.", "value": 1.19, "unit": "% ID/g"},
      {"measurement": "Radioactive distribution in brain per unit weight, After 5 min.", "setting": "[9]; 5 min.", "value": 0.97, "unit": "% ID/g"},
      {"measurement": "Radioactive distribution in brain per unit weight, After 30 min.", "setting": "[9]; 30 min.", "value": 0.23, "unit": "% ID/g"},
      {"measurement": "Radioactive distribution in brain per unit weight, After 60 min.", "setting": "[9]; 60 min.", "value": 0.09, "unit": "% ID/g"},
      {"measurement": "logPoctanol value", "setting": "[10]", "value": 2.1},
      {"measurement": "logPoctanol value", "setting": "[11]", "value": 2.1},
      {"measurement": "Radioactive distribution in brain per unit weight, After 2 min.", "setting": "[12]; 2 min.", "value": 1.02, "unit": "% ID/g"},
      {"measurement": "Radioactive distribution in brain per unit weight, After 5 min.", "setting": "[12]; 5 min.", "value": 0.99, "unit": "% ID/g"},
      {"measurement": "Radioactive distribution in brain per unit weight, After 30 min.", "setting": "[12]; 30 min.", "value": 0.20, "unit": "% ID/g"},
      {"measurement": "Radioactive distribution in brain per unit weight, After 60 min.", "setting": "[12]; 60 min.", "value": 0.08, "unit": "% ID/g"}
    ]}
  ]
}
